Assay results from US9649292B2, “Method for treating prostate cancer and/or gastrointestinal cancer” (King Fahd University of Petroleum and Minerals, priority 2015, dated 2017).
pIC50: −log10 of the molar value.

What was measured:
PC3 cells [1] = assay: MTT assay for antiproliferative effects at fixed concentration; assay type: cell-based, human; conditions: PC3, 10 μM, 24 and 72 h
Experimental: (§1) An MTT assay was used to obtain the number of living cells in the sample. Human gastric cancer SGC7901 and prostate cancer PC3 cells were seeded on 96-well plates at a predetermined optimal cell density, i.e. ca. 6,000 cells/100 μL per well in 96-well plates, to ensure exponential growth in the duration of the assay. After 24 h pre-incubation, the growth medium was replaced with the experimental medium containing the appropriate drug, using one of gold(III) compounds 1, 2 and 3 or a control using water. Six duplicate wells were set up for each sample, and cells untreated with drug served as a control. In one set of culture plates, human gastric cancer SGC7901 and human prostate PC3 cells were treated with 10 μM compounds 1, 2 and 3 as the drug and the control (water) for 24, 48 and 72 h. In other sets, the compounds 1, 2 and 3 with different concentration, i.e. 10, 20 and 30 μM, were employed to determine the growth inhibitory effect for both PC3 and SGC7901cells separately. After incubation, 10 μL MTT (6 g/L, Sigma) was added to each well and the incubation was continued for 4 h at 37° C. After removal of the medium, MTT stabilization solution [dimethylsulfoxide (DMSO): ethanol (C2H5OH)=1:1 in v/v ratio] was added to each well, and shaken for 10 min until all crystals were dissolved. Then, the optical density was detected in a micro plate reader at 550 nm wavelength using an Enzyme-Linked Immuno-Sorbent Assay (ELISA) reader. After being treated with gold(III) complexes 1, 2 and 3, the cell viability was examined by MTT assay. Each assay was performed in triplicate. An MTT assay for the inhibitory effect has been used for compounds 1, 2 and 3 against PC3 and SGC7901 cells. These cells were treated with various concentrations of compounds 1, 2 and 3 for 24-72 h.

SGC7901 cells [2] = assay: as above; assay type: cell-based, human; conditions: SGC7901, 10 μM, 24 and 72 h
Experimental: as §1

[3] = Cyclic voltammetry in phosphate buffer; assay type: physicochemical; conditions: phosphate buffer pH 7.4, platinum electrode, 50 mV/s, 1.0 mM
Experimental: The electrochemical experiments were performed at room temperature using a potentiostat (SP-300, Bio-Logic Science Instruments) controlled by EC-Lab v10.34 software package. The electrochemical experiments were performed at room temperature. All the measurements were performed on solutions de-aerated by bubbling ultra-pure nitrogen for 15 min. The values of reduction potential here reported were measured against a saturated calomel electrode (SCE). The cyclic voltammetry of the compounds 1, 2 and 3 were measured at scan rate of 50 mV/s on a reference buffer (40 mM phosphate, 4 mM NaCl, pH 7.4) using platinum as working electrode and graphite as a counter electrode with a concentration of 1.0 mM at room temperature. Ferrocene was used as pseudo reference to calibrate the working electrode. The couple FeIII/II formal potential of ferrocene occur at E^o/=+0.44 V (vs SCE) in 0.1 MBu4NPF6 solution in CH3CN solvent which is similar to the report value under the same experimental condition [Hans J, Beckmann A, Kruger H-J (1999) Stabilization of Copper(III) ions with deprotonated hydroxyiminoamide ligands: syntheses, structures, and electronic properties of Copper(III) and Copper(III) complexes. Eur J Inorg Chem 1:163-172—incorporated herein by reference in its entirety]. Conversion to values vs ENH was obtained upon adding +0.24 V to the corresponding SCE values.
Gold(III) complexes 1, 2 and 3 show one irreversible reduction process in which the controlled potential coulometry involves three electrons per mole. The occurrence of Au(III)/Au(0) reduction is visually indicated by the appearance of a thin gold layer deposited on the platinum electrode surface after exhaustive electrolysis (Ew, −0.7 V).

PC3 cells [4] = conditions: cited from earlier work
SGC7901 cells [5] = conditions: cited from earlier work; for cytotoxicity with respect to cisplatin: SGC7901 cells
[6] = system: chronic lymphocytic leukemia cells (CLL); conditions: cited from earlier work
[7] = Stability by 1H and 13C NMR in D2O and DMSO-d6/D2O; assay type: physicochemical; conditions: DMSO-d6/D2O (2/1 v/v), room temperature
Experimental: The stability of complexes 1, 2 and 3 were tested in water as well as in a mixture of solvents i.e. DMSO/water (2/1 in v/v ratio) by ^1H and ^13C NMR measurements. To investigate the structural stability of the complexes, NMR spectra of the complexes dissolved in D2O; and in mixed DMSO-d6/D2O (2/1 in v/v ratio) solution were obtained just after dissolution, 24 h and 1 week at room temperature in mixed DMSO-d6/D2O and at 37° C. in D2O. At least 20 mg of complexes 1, 2 and 3 in 1 mL D2O at 37° C.; and in 1 mL DMSO-d6/D2O (2/1:v/v) at room temperature were subjected to ^1H and ^13C NMR measurements and followed by their spectral analysis. Immediately after dissolution of complexes 1, 2 and 3 in the respective solvents and duplicate samples were then stored at room temperature and 37° C., respectively, and analyzed again after 24 h and 1 week in order to determine stability of complexes. Since the complexes were not used beyond a week after dissolution, so NMR measurements were limited to one week.
NMR spectra of the complexes were obtained upon immediate dissolution to serve as reference spectra and later at 24 h and after 7 days at 37° C. in D2O and at room temperature in mixed DMSO-d6/D2O in order to determine their stability. […] For example, FIGS. 12A-B and 13A-B illustrated, respectively, the ^1H and ^13C NMR profiles of the compound 1 at just after mixing and after 7 days.

PC3 cells [8] = assay: In vitro cytotoxic MTT assay, IC50; assay type: cell-based, human; conditions: 72 h exposure
Experimental: (§2) Human prostate PC3 and gastric SGC7901 cells were used throughout the examples of the present disclosure. Cells were cultured in Dulbecco's Modified Eagle Medium (DMEM) supplemented with 10% fetal calf serum (FCS), penicillin (100 kU L^−1) and streptomycin (0.1 g L^−1) at 37° C. in a 5% CO2-95% air atmosphere. Human gastric SGC7901 cells and prostate PC3 were incubated with these compounds at fixed concentrations or with water as a control to assess the inhibitory effect on cell growth. […] The cell survival versus drug concentration is plotted. Cytotoxicity was evaluated in vitro with reference to the IC50 value. The half maximal inhibitory concentration (IC50) is a measure of the effectiveness of a compound to inhibit biological or biochemical functions. According to the FDA, IC50 represents the concentration of a drug/compound/complex that is required for 50% inhibition in vitro. It is evaluated from the survival curves as the concentration needed for a 50% reduction of survival. IC50 values are expressed in μM. The IC50 values were calculated from dose-response curves obtained in replicate experiments.
(§3) The in vitro cytotoxic effect of mixed ligand gold(III) diamine complexes against androgen-resistant prostate PC3 and human gastric SGC7901 cancer cells were studied using MTT assay. […]

SGC7901 cells [9] = assay: In vitro cytotoxic MTT assay, IC50; assay type: cell-based, human; conditions: 72 h exposure
Experimental: as §2, §3

| Compound | order of time dependent antiproliferative effect (PC3 cells [1]) | order of time dependent antiproliferative effect (SGC7901 cells [2]) | Ep, peak potential for reduction vs. ENH [3] [V] | cytotoxicity with respect to cisplatin (SGC7901 cells [5]) | also measured |
| --- | --- | --- | --- | --- | --- |
| NCCN.N[C@@H]1CCCC[C@@H]1N.[Cl][Au]([Cl])[Cl] [Complex 1, cis-1,2-diaminocyclohexane ethylenediamine gold(III) chloride] | complex 1>complex 3>complex 2 | complex 1>complex 3>complex 2 | 0.49 | – | – |
| NCCN.[Au+3].[Cl-].[Cl-].[Cl-] [[(en)AuCl2]Cl] | – | – | – | almost two fold more cytotoxic | lower cytotoxicity as compared to cisplatin (PC3 cells [4]): 7-9 fold; cytotoxicity profile compared to cisplatin [6]: comparable to cisplatin |
| NCCN.N[C@H]1CCCC[C@@H]1N.[Cl][Au]([Cl])[Cl] [Complex 3, (S,S)-(+)-1,2-diaminocyclohexane ethylenediamine gold(III) chloride] | complex 1>complex 3>complex 2 | complex 1>complex 3>complex 2 | 0.51 | – | dissociation of ethylenediamine (en) after 7 days [7]: 25% |
| NCCN.NCCN.[Au+3].[Cl-].[Cl-].[Cl-] [[Au(en)2]Cl3] | – | – | – | slightly lower cytotoxicity | cytotoxic effect compared to cisplatin (PC3 cells [4]): comparable to that of cisplatin |
| NCCN.N[C@@H]1CCCC[C@H]1N.[Cl][Au]([Cl])[Cl] (racemic) [Complex 2, trans-(±)-1,2-diaminocyclohexane ethylenediamine gold(III) chloride] | complex 1>complex 3>complex 2 | complex 1>complex 3>complex 2 | 0.46 | – | – |
| N.N.[Cl][Pt][Cl] [Cisplatin] | – | – | – | – | pIC50 (PC3 cells [8]): 5.96; pIC50 (SGC7901 cells [9]): 5.14; intrinsic resistance of SGC7901 relative to PC3 cells (SGC7901 cells [5]; SGC7901 vs PC3): 7-8 fold |
